Values after ≈ are worked out from the molar mass of the structure shown. Where two headings read alike, the source gives them in different places.
Key:
rats = conditions: 25 mg/kg/day oral with corn oil, 30 days, 1.5 h/day (1500 Lux); cited from earlier work
ddY mice = conditions: cited from earlier work
[1] = design: method as in PMID 27151507; conditions: administered dose of 25 mg/kg; cited from earlier work
[2] = Solubility of IP-DHA in SNEDDS excipients; format: physicochemical
[3] = Stability on human microsomes; format: in vitro ADME; design: dose or concentration left out as unconfirmed; conditions: pooled liver microsomes, pH 7.4, 37 °C, NADPH-generating system, read-out: Stability on human microsomes T1/2
Method: The metabolic stability of IP-DHA on human microsomes (microsomes S9, cryopreserved hepatocytes, recombinant CYP, and recombinant UGT) has been evaluated and expressed as percentage of IP-DHA remaining. IP-DHA was pre-incubated with pooled liver microsomes in phosphate buffer (pH 7.4) at 10 mM for 5 min in a 37 °C shaking water bath (IKA® RH basic KT/C). The reaction was initiated using the NADPH-generating system and incubated for 0, 15, 30, 45, and 60 min. The reaction was stopped by transferring the incubation mixture to acetonitrile/methanol (1:3 v/v ratio). Samples were then mixed and centrifuged at 3000 rpm (Sigma centrifuge 2K15) for 20 min to precipitate the protein, and supernatants were collected. IP-DHA concentration was determined using µHPLC-MS/MS analysis, as described in Section 2.2.3. The half-life (T1/2) was estimated from the slope of the initial linear range of the logarithmic curve of the compound remaining (%) vs. time, assuming first-order kinetics.

[4] = IP-DHA stability and solubility in gastric- and intestinal-simulated fluids; format: in vitro ADME; design: half-life: dose or concentration left out as unconfirmed
Method: The chemical stability of free IP-DHA and IP-DHA loaded in SNEDDS at 30 mg/mL was evaluated in a gastric and an intestinal environment (Table 1). A total of 150 µL of free IP-DHA (solubilized in MeOH) or SNEDDS-IP-DHA loaded at 30 mg/mL were placed in 20 mL of freshly prepared SGF or ISF under magnetic stirring at 150 rpm in a water bath at 37 °C. Samples were collected at 0, 30, 60, and 90 min for the stability analysis in SGF, or 0, 20, 40, 60, 80, 100, and 120 min for the stability analysis in ISF. A total of 500 µL of the medium was recovered and diluted with 500 µL of MeOH to stop the enzymatic degradation reaction. The samples were centrifuged (Sigma centrifuge 2K15) for 10 min at 15,000 rpm. The supernatant was removed and IP-DHA was quantified as described in Section 2.3.5.

[5] = Solubility of IP-DHA in PBS, SGF and ISF without enzymes; format: physicochemical; conditions: for solubility: thermodynamic from solid, n = 3
Method: Solubility was evaluated in PBS (pH 7.4), SGF, and ISF (Table 1) without enzymes (pepsin and pancreatin). An excess of IP-DHA was added for each medium type, followed by mixing using a vortex mixer (Vortex Génie 2) and equilibration at room temperature. Next, the mixtures were centrifuged at 3000 rpm (Sigma centrifuge 2K15) for 15 min. The supernatant from each sample was diluted with methanol. The concentration of IP-DHA in each sample was determined using the µHPLC/MS-MS analysis, as described in Section 2.2.3.

Log P of IP-DHA = format: physicochemical
ABCA4KO mice [6] = assay: Acute light-induced retinal degeneration, electroretinography; format: in vivo; conditions: 100 mg/kg oral, 60 min before 20,000 Lux white light for 90 min, ERG 5 days later
Method: (§1) Mice between 8 and 16 weeks of age (both sexes), were weighed to adjust the quantity of administered compound for a dosage at 100, 50, or 17 mg/kg. Mice were orally fed with a 22-gauge needle containing SNEDDS or soybean oil as a control vehicle, IP-DHA solubilized in soybean oil (20 mg/mL), and SNEDDS-IP-DHA (30 mg/mL).
(§2) After the mice were dark-adapted (DA) for 24 h, their pupils were dilated with 0.5% tropicamide. The mice were force-fed in the dark 1 h before light exposure. Mice were exposed to constant light (two cool white fluorescent lamps, OSRAM of 26 watts, 1800 lm, a maximum photopic efficiency of ~470 nm, light intensity averaged to 24 mW/cm^2, corresponding to ≈20.000 Lux) for 1.50 h in a white plastic bucket with a fan. Mice were kept in the dark for 5 days before we performed the final retinal evaluations. Throughout the experiment, the ambient temperature was 22 °C, which was identical to that of the breeding box, to avoid an increase in body temperature, which could further damage the retina.
All electrophysiological examinations were conducted using the Visiosystem (SIEM, France). Animals were prepared and anesthetized, and electroretinogram recording (binocular full-field ERG) was performed with cotton electrodes, as previously described.

Caco-2 permeability = format: in vitro ADME; conditions: human, Caco-2, pH 6.5/7.4, 10 μM
Method: Caco-2 cells are human intestinal epithelial cells that are derived from a colorectal adenocarcinoma. Cells were seeded at 1 × 10^5 cells/cm^2 in 96-well Multiscreen^TM plates (Millipore). This assay was performed in either the apical-to-basolateral (A–B) or B–A direction. IP-DHA was prepared at 10 μM in HBSS-MES (pH 6.5) or HBSS-HEPES (pH 7.4), with a final DMSO concentration of 1%. The working solution was then centrifuged, and the supernatant was added to the donor side. The assay plate was incubated at 37 °C with gentle shaking for 60 min or 40 min for the A–B or B–A assays, respectively. Samples were aliquoted from the donor side at time zero and from the end point, and from the receiver side at the end point. Samples were analyzed via HPLC-MS/MS, as described in Section 2.2.3.
The apparent permeability coefficient (Papp) in cm/s of IP-DHA was calculated as follows: Papp=VR×CRend/Δt×1/A×CDmind−CRmind where VR is the volume of the receiver chamber. CR(end) is the concentration of IP-DHA in the receiver chamber at the end time point, Δt is the incubation time, A is the surface area of the cell monolayer, and CD(mid) is the calculated mid-point concentration of the test compound on the donor side, which is the mean value of the donor concentration at time 0 min and the donor concentration at the end time point. […]

ABCA4KO mice [7] = assay: Acute light-induced retinal degeneration, histological analysis; format: in vivo; conditions: 100 mg/kg oral, acute white light; dark-adapted mice 2.2
Method: as §1, §2
All animals were killed via cervical dislocation. The eyes were rapidly enucleated and fixed in 4% paraformaldehyde for 24 h at 4 °C. Eyecups were embedded in paraffin and cut into 5 μm sagittal sections. […] The thickness of the inner nuclear layer (INL) and the outer nuclear layer (ONL) was measured and expressed in arbitrary units using ImageJ software. […]

retinal cells = tested on: retinal cells; design: method as in PMID 27072643; conditions: in vitro; cited from earlier work
[8] = tested on: ABCA4KO (−/−) mouse model; design: method as in PMID 32641711; conditions: intravenous route, cited from earlier work

CC1=C[C@H](O)CC(C)(C)[C@H]1/C=C/C(C)=C/C=C/C(C)=C/C=C/C=C(C)/C=C/C=C(C)/C=C/C1=C(C)C[C@@H](O)CC1(C)C [lutein]
Photoreceptor protection (rats): demonstrated its efficacy for protecting photoreceptors

CC1=C(/C=C/C(C)=C/C=C/C(C)=C/C=C/C=C(C)/C=C/C=C(C)/C=C/C2=C(C)C(=O)[C@@H](O)CC2(C)C)C(C)(C)C[C@H](O)C1=O [Astaxantin]
Photoreceptor protection (ddY mice; dissolved in olive oil, 100 mg/kg oral, white light 3 h at 8000 Lux): partially preserve photoreceptors

CC(=O)N1CCN(c2ccc(N)c(-n3ccnc3)c2)CC1 [NSP-116]
Cmax in plasma [1]: 7000 ng/mL | Photoreceptor protection (ddY mice; suspended in water with 0.5% CMC, 30 mg/kg oral 30 min before white light 8000 Lux for 3 h): effective in protecting photoreceptors

CC/C=C\C/C=C\C/C=C\C/C=C\C/C=C\C/C=C\CCC(=O)Oc1cc(O)cc(OC(C)C)c1 [IP-DHA, phloroglucinol-isopropyl-DHA]
solubility ([2]; Labrasol, surfactant, read-out: Solubility of IP-DHA in Labrasol): 46 ± 2.15 mg/mL (≈ 96.1 mM) | solubility ([2]; Phosal 53 MCT, oil or lipid, oil phase, read-out: Solubility of IP-DHA in Phosal 53 MCT): 25.5 ± 3.27 mg/mL (≈ 53.2 mM) | solubility ([2]; Transcutol HP, organic solvent or mixture, co-surfactant, read-out: Solubility of IP-DHA in Transcutol HP): 45 ± 2.16 mg/mL (≈ 94.1 mM) | half-life [3]: 10 min | half-life ([4]; ISF with pancreatin and bile salts, pH 7.4, 37 °C, read-out: T1/2 of IP-DHA in intestinal environment (ISF)): 11 min | Stability of IP-DHA in gastric medium (SGF) ([4]; SGF with pepsin, pH 1.5, 37 °C, up to 90 min): remained stable | solubility ([5]; PBS, pH 7.4, aqueous buffer, room temperature, read-out: Solubility in PBS, pH 7.4): 0.0115 ± 0.00153 mg/mL (≈ 0.0241 mM) | BCS classification ([5]; from poor solubility and poor Caco-2 permeability): BCS Class IV | solubility ([5]; pH 1.5, simulated gastric fluid, free IP-DHA, SGF without pepsin, read-out: Solubility in SGF): 0.00739 ± 0.00026 mg/mL (≈ 0.0154 mM) | solubility ([5]; pH 7.4, fassgf or other biorelevant, free IP-DHA, ISF without pancreatin, read-out: Solubility in ISF): 0.0102 ± 0.00012 mg/mL (≈ 0.0213 mM) | logP (Log P of IP-DHA): > 5 | a-wave, % of photoreceptor activity remaining vs dark-adapted mice (ABCA4KO mice [6]): 42% | b-wave, % of photoreceptor activity remaining vs dark-adapted mice (ABCA4KO mice [6]): 39% | Papp B→A at 40 min, 10 μM (Caco-2 permeability; 40 min): 0.7 ± 0.05 ×10⁻⁶ cm/s | Papp A→B at 60 min, 10 μM (Caco-2 permeability; 60 min): 1 ± 0.14 ×10⁻⁶ cm/s | INL/ONL ratio of thickness (ABCA4KO mice [7]): 0.7 | Toxicity on retinal cells (retinal cells): absence of the toxicity | Protection of photoreceptors ([8]; IP-DHA associated with BSA at 30 mg/kg): 80–85% | Effect on the retinoid visual cycle [8]: did not affect the retinoid visual cycle

— PMC9147958, “Formulation and Evaluation of SNEDDS Loaded with Original Lipophenol for the Oral Route to Prevent Dry AMD and Stragardt’s Disease” (Pharmaceutics, 2022)
